Measured values from a melting point compilation (Tetko et al.; mined from patent text by program, amines drawn as free bases though some values may be those of a salt).

melting point | SMILES
> 285 °C | Cc1cc(=O)c2c([nH]1)CCOC2
107 to 108 °C | Cc1ccc([N+](=O)[O-])c(C#N)c1C
165 to 166 °C | Cc1oc(-c2ccc(C(F)(F)F)cc2)nc1-c1ccc(-c2cc(Br)c(OCC(=O)O)c(Br)c2)cc1
171 to 172 °C | O=C(Nc1cccnc1)N1CCN(c2cc(-c3ccc(F)cc3F)ncn2)CC1
195 to 197 °C | CCCOc1ccccc1-c1nc2cc(N)c(N)cc2c(=O)[nH]1
206 °C | N#CC(c1ccc(Cl)cc1)c1ccc(-n2ncc(=O)[nH]c2=O)cc1 (configuration not stated)
239 to 240 °C | NC(=O)c1ncn2c(-c3cccc(C(F)(F)F)c3)ccnc12
248 to 250 °C | OCc1ccc2oc(-c3ccc(O)cc3)cc2c1
118 to 125 °C | CC(=NNCCCC(C)C)C(=O)O
138 to 140 °C | CCc1nc2c(cnn2CC)c(NC2CCOCC2)c1CNC(=O)c1cccc(C(=O)NCc2ccc(C)c(-c3cccc(CN4CC5CC4CN5)c3)c2)c1 (configuration not stated)
193 to 194 °C | CN(C)C(=O)COC(=O)c1cc(S(N)(=O)=O)c(Cl)cc1NCc1ccco1
238 °C | O=c1c2[nH]c(N(S(=O)(=O)c3ccccc3)S(=O)(=O)c3ccccc3)nc2n(CC2CC2)c(=O)n1CC1CC1
78 to 79 °C | CCc1cc(N(C)C(=O)N2CCN(c3cc(OC)cc(OC)c3)CC2)c(OC)nc1C
108 °C | Cc1ccc(S(=O)(=O)N2CCCC2c2cccs2)cc1 (racemic)
177 to 179 °C | CCOC(=O)c1ccc(C2CC(=O)N(C)C2C(O)c2ccc(-c3ccccc3)s2)cc1 (configuration not stated)
112 to 114 °C | COC=C(C(=O)OC)c1ccccc1CON=C(C)C(=NOC)c1ccc(CCc2ccc(Cl)cc2Cl)cc1
170 to 173 °C | CS(=O)(=O)Nc1cccc(Nc2nc(NCc3cccc(N)c3)c3nc[nH]c3n2)c1
213 to 216 °C | O=C(O)C1Cc2ccccc2N1C(=O)CCSSCCC(=O)N1c2ccccc2CC1C(=O)O (configuration not stated)
81 to 82 °C | OC/C=C/c1ccc(Cc2cccnc2)cc1
149 to 152 °C | COc1ccc2c(c1)C(CCNC(=O)C(F)(F)F)C1(CC2)Cc2ccccc2C1 (configuration not stated)
75 °C | O=C1CCc2ccc(Oc3c(F)cc(C(F)(F)F)cc3Cl)cc21
179 to 181 °C | Clc1ccc(SC(Cn2ccnc2)C23CC4CC(CC(C4)C2)C3)cc1Cl (configuration not stated)
36.5 to 38 °C | CCCSc1ccc(N)c([N+](=O)[O-])c1
268 to 271 °C | O=c1[nH]nc(Br)c2ccccc12

melting point | SMILES
103 to 106 °C | CCOC(=O)C(=O)c1ccc(OCC(=O)N2CCOCC2)cc1
121 to 124 °C | O=C1NCC(CCN2CCN(c3ccccc3F)CC2)O1 (configuration not stated)
211 to 213 °C | O=c1c2cccc(O)c2oc2cc(O)cc(O)c12
95.4 to 96.5 °C | CC(=NO)c1ncnc(OC(C)C)c1C
143 to 145 °C | CCOc1ccc(C2=NC(=O)C(C)(C(C)C)N2)nc1 (configuration not stated)
134 to 137 °C | CC1Cc2c(N3C(=O)C4=C(CCCC4)C3=O)ccc(Cl)c2O1 (configuration not stated)
93 to 94 °C | COc1cc(OCc2ccccn2)c(C=O)cc1-c1cccs1
168 to 169 °C | O=C(NCCO)c1cccc(-c2nccc3cc(Cc4cccc(C(F)(F)F)c4)oc23)c1
215 to 216 °C | Cc1nccn1-c1nc(-c2ccc(Cl)cc2)c(CCC(N)=O)o1
45 to 46 °C | CCOC(=O)c1c(C)nc(Cl)c([N+](=O)[O-])c1Cl
225 to 226 °C | O=C(NCc1cccnc1)C1Oc2ccc(Cl)cc2Cc2cc(Cl)ccc2O1
218 to 220 °C | CC1(C#CC2(C(F)(F)F)c3cc(Cl)ccc3NC(=O)N2C2CC2)CC1 (configuration not stated)
107 °C | Clc1nc(Cl)c2occc2n1
127 to 129 °C | CN(C)c1ccc2nc(-c3ccccc3)oc2n1
204 °C | CC(=O)Nc1nc(C)c(S(=O)(=O)N(CCO)CCO)s1
166 to 168 °C | Cc1nc(/C=C/c2ccccc2)no1
187 to 188 °C | O=C(c1ccc(Cl)cc1)c1cc(-c2ccccc2)c(N2CCOCC2)s1
82 to 84 °C | [N-]=[N+]=N[Si](c1ccccc1)(c1ccccc1)c1ccccc1
129 to 130 °C | O=[N+]([O-])c1cnc(Sc2cnccn2)s1
176 to 184 °C | COc1ccccc1CCNC(=S)Nc1nc2ccccc2[nH]1
119 to 120 °C | Cc1cc2c(s1)CCCNC2=O
68 to 70 °C | COC(=O)C(Cl)=C(C)N
123 to 127 °C | CC(=O)C(=Cc1ccc(O)cc1)C(C)=O

The remaining lines, values behind:

SMILES | melting point
Cc1cc(O)c(CCN(C)C)c(C)c1C | 72 °C
CCOC(=O)c1[nH]c2cc(Br)c(Cl)cc2c1-c1ccccc1F | 193 to 194 °C
Nc1ccc(Cl)n2nc(SCc3ccccc3)nc12 | 113 to 114 °C
CCCOC1=Nc2c(ncn2-c2ccccc2)C2=N[C@@H](Cc3ccccc3)CN12 | 74 to 80 °C
CS(=O)c1nnc2n1C=Cc1ccccc1C2 (configuration not stated) | 176 to 177 °C
CCOC(=O)c1c(C=O)c2c(Cl)cc(Cl)cc2n1S(=O)(=O)c1ccccc1 | 226 °C
CNc1ccc(C#Cc2cccc(-c3nc(NC)nc4cc(OC)c(OC)cc34)c2)cn1 | 136 to 138 °C
CC(=Cc1ncon1)c1ccc(Cl)cc1 | 56 to 57 °C
C[N+]([O-])=CCC=Cc1ccccc1 | 85 to 86 °C
CC(n1cnc2cc(-c3ccc(C4=NCCO4)cc3)sc2c1=O)C(O)(Cn1cncn1)c1ccc(F)cc1F (configuration not stated) | 235 to 236 °C
CN(C)C(=O)Oc1cccc2c1CC[C@H]1[C@H]2CCN1CCC1CCCCC1 | 110 to 112 °C
CCCOC(=O)n1cc2c(n1)NC(CCC)=C(C(=O)OCC)C2c1ccccc1Cl (configuration not stated) | 59 °C
CC(=O)ONC(=N)c1ccc(-c2nc(C)c(C(=O)NC(C)C(O)(Cn3cncn3)c3ccc(F)cc3F)s2)cc1 (configuration not stated) | 146 to 147 °C
CSc1cc(C(F)(F)F)ccc1C#N | 80 °C
CS(=O)(=O)Nc1ccc2[nH]c(=O)n(CCCCN3CC=C(c4ccccc4)CC3)c(=O)c2c1 | 193 to 195 °C
CC(=O)OC1=C(c2ccccc2)C(=O)N(C(C)(C)c2ccccc2)C1 | 149 to 150 °C
CCOC(=O)c1c2c(nc3ccccc13)CCN(C(=O)OCC)CC2 | 94 °C
Cc1noc(C(=O)NC(C)(C)C)c1C(N)=O | 155 to 158 °C
CN1c2ccc(Cl)cc2C(c2ccccc2F)=Nc2cccnc21 | 136 to 138 °C
COC(=O)C(C)(C)Sc1cccc(OC(=O)Nc2ccc(C(F)(F)F)cc2)c1 | 66 to 67 °C
CCNc1nc(C)cc(O)n1 | 176 °C
CCOC(=O)C(=CNC1CC1)C(=O)c1cc(F)c(-n2cccc2)cc1F | 90 to 92 °C
CC1(C)CCC(C)(C)c2cc(CC#Cc3ccc(C(=O)Nc4ccc(O)cc4)cc3)ccc21 | 159 to 160 °C
CC(C)C[C@H](NC(=O)OCc1ccccc1)C(=O)N[C@@H](Cc1ccccc1Cl)C(=O)CSCc1ccco1 | 110 °C
Cc1nc(-c2ccc(Cl)cc2Cl)sc1C(=O)NCCCCN1CCC(c2ccc3c(c2OCCO)CCCC3)CC1 | 122 to 124 °C
CC[C@@H](NC(=O)N1CC(=O)NCC(Cc2cc(Cl)ccc2OC)C1=O)C(=O)Nc1nnn[nH]1 (some centres not stated) | 141 to 142 °C
CCN(CC)c1ccc([PH](=O)c2ccc(N(CC)CC)cc2)cc1 | 129 °C
COc1ccccc1C1(O)C(O)CC(C)(C)C2CN(Cc3ccccc3)CC21 (configuration not stated) | 190 °C

SMILES | melting point
c1cncc(OCCCCCCOc2cccnc2)c1 | 85 °C
Cc1nc(N)sc1-c1cccnc1 | 190 to 191 °C
Cc1cc(C)c2c(c1C)OC1(CCN(C)CC1)C2c1ccc(C(C)C)cc1 (configuration not stated) | 63 to 64 °C
C#Cc1cnc2c(C)cc(OC(SC)C(=O)NC(C)(C#C)COC)cc2c1 (configuration not stated) | 108 to 109 °C
O=C(NC(=O)c1c(F)cccc1F)Nc1ccc(OC(F)(F)C(F)F)c(C(F)(F)F)c1 | 182 to 185 °C
CSc1cc(C#N)c(Oc2ccc(Cl)c(Cl)c2)cn1 | 96 to 97 °C
COc1c(F)c(F)c(C(=O)c2c(F)c(F)c(F)c(F)c2F)c(OC)c1F | 49 to 50 °C
CCOC(=O)C(C(=O)OCC)=C1CN(C)C(=O)c2ccccc2N1 | 139 °C
Cc1cncn1-c1cc(NC(=O)OC(C)(C)C)cc(C(F)(F)F)c1 | 169 to 171 °C
CCOC(=O)C(C)COc1ccccc1-c1cc(C#N)c(=O)[nH]c1C (configuration not stated) | 167 to 170 °C
Cc1c(C)c2c(c(C)c1NC=O)CC(C)(CSc1ccccc1)O2 (configuration not stated) | 130 to 131 °C
CCOc1cc(Br)cc2c1OC(C)(C)C2 | 55 to 58 °C
Nc1cc(C(c2c(F)ccc(F)c2F)S(=O)(=O)CCC(F)(F)F)c(Cl)cn1 (configuration not stated) | 155 to 159 °C
CC1CCc2cc(C3=NNC(=O)C4CC34)ccc2NC1=O (configuration not stated) | 305 to 307 °C
O=C(N[C@H](Cc1ccc(C(F)(F)F)cc1)[C@@H](O)c1ccc(F)cc1)c1cccc(Cl)c1Cl (racemic) | 187 to 188 °C
O=C(O)Cc1cc2c(s1)-c1ccccc1CC2 | 103 to 105 °C
CC(c1ccccc1)N1Cc2cncn2C(c2ccc(C#N)cc2)C1=O (configuration not stated) | 157 to 158 °C
Cn1cc(C(=O)NCc2ccc(Cl)cc2)c(=O)c2cc(CN3CCCSCC3)ccc21 | 166 to 167 °C
CCOc1ccc2c(S(=O)(=O)c3ccc(OCc4ccccc4)cc3)c(C(C)C)cn2c1 | 153 °C
COc1ccc2c(c1)C(=O)c1c-2n(CCCCl)c(=O)c2ccccc12 | 195 to 198 °C
O=C1CC(C(O)(c2ccc(F)cc2)c2ccc(F)cc2)CN1Cc1ccccc1 (configuration not stated) | 158 to 160 °C
COc1ccc(/C=C/c2cc(/C=C/c3ccc4cc[nH]c4c3)[nH]n2)c(OC)c1 | 121 to 133 °C
Nc1nc(N)nc(-c2ccc(-c3ccccc3[N+](=O)[O-])cc2)n1 | > 250 °C
O=[N+]([O-])c1ccc(NCCc2c[nH]cn2)nc1 | 162 to 163 °C
CCn1nnc2cc3c(cc2c1=O)OC1CCCN1C3=O (configuration not stated) | 186 to 188 °C
O=C(NCCCn1ncnn1)c1ccccc1NS(=O)(=O)c1cccc(C(F)(F)F)c1 | 67 to 69 °C
C=C(c1ccc(Cl)cc1)c1ccc(NC(=O)c2cc(Br)cc(Br)c2O)cc1 | 181 to 183 °C
